Data taken from ChEMBL document CHEMBL5465560, “Selectivity Literature for EUbOPEN Chemogenomic Library” (2024).
Each block holds one compound with its values, some of them ahead of it.

Columns and labels:
[1] = biological target: Serine/threonine-protein kinase 38 (Homo sapiens) (UniProt Q15208); test: Selectivity interaction (ActivX KiNativ screen (ex vivo kinase selectivity in human PBMCs)) EUB0001619a STK38; format: cell-based; conditions: PBMC, at 1 µM
[2] = biological target: LIM domain kinase 2 (Homo sapiens) (UniProt P53671); conditions: at 10 µM
[3] = biological target: T1, Peripheral plasma membrane protein CASK (Homo sapiens) (UniProt O14936); conditions: at 10 µM
T1 sequence (whole entry): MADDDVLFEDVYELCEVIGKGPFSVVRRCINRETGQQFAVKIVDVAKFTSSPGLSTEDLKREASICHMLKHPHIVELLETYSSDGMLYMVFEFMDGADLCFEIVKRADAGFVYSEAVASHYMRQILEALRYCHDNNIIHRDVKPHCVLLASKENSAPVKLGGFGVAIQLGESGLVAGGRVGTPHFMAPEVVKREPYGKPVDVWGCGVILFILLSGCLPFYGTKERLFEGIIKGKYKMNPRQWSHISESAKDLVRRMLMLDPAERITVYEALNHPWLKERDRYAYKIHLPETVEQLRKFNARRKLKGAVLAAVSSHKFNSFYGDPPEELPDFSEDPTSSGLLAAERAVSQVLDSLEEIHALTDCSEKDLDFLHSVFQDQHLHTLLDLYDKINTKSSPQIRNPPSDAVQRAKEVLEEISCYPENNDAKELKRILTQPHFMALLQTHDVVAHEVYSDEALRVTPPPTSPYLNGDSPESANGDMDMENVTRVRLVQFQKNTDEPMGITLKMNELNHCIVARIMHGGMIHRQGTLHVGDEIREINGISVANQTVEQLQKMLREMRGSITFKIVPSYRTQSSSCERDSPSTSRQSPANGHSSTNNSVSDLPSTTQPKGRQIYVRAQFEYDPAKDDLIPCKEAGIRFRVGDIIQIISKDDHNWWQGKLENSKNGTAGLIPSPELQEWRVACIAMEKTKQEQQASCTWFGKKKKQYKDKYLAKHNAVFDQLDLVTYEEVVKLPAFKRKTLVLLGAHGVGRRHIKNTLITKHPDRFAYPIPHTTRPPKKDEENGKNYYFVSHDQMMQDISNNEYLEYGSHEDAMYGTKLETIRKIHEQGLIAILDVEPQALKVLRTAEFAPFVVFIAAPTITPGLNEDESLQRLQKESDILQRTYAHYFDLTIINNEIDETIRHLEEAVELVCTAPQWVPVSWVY

[4] = biological target: G protein-coupled receptor kinase 5 (Homo sapiens, UniProt P34947); test: Selectivity interaction (Kinase panel (Invitrogen)) EUB0000639a GRK5; conditions: at 200 nM
[5] = biological target: T2, Serine/threonine-protein kinase TBK1 (Homo sapiens) (UniProt Q9UHD2); test: Selectivity interaction (ActivX KiNativ screen (kinase selectivity in THP-1 cell lysates)) EUB0000639a TBK1; format: subcellular; conditions: lysate, at 0.2 µM
T2 sequence (whole entry): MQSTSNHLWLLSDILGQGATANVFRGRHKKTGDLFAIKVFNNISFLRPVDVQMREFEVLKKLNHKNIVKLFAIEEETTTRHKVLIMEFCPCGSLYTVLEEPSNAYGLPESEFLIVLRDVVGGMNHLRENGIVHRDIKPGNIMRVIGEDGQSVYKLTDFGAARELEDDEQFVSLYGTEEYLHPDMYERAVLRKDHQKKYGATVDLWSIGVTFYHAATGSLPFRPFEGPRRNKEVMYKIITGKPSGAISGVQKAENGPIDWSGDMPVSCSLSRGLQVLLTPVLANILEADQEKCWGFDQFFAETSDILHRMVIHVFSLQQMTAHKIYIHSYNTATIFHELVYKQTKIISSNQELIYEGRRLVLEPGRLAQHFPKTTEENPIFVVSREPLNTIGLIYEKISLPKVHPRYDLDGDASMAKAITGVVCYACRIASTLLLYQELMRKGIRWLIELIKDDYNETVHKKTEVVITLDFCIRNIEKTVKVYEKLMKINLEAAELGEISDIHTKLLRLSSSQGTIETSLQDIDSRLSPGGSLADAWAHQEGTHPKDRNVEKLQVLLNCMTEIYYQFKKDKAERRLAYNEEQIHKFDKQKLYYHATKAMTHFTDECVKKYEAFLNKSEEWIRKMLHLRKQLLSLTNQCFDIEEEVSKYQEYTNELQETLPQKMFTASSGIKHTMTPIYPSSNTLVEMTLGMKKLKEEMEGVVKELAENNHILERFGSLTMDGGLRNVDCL

[6] = biological target: T3, Dual specificity mitogen-activated protein kinase kinase 5 (Homo sapiens) (UniProt Q13163); test: Selectivity interaction (ProQinase) EUB0000171b MAP2K5
T3 sequence (whole entry): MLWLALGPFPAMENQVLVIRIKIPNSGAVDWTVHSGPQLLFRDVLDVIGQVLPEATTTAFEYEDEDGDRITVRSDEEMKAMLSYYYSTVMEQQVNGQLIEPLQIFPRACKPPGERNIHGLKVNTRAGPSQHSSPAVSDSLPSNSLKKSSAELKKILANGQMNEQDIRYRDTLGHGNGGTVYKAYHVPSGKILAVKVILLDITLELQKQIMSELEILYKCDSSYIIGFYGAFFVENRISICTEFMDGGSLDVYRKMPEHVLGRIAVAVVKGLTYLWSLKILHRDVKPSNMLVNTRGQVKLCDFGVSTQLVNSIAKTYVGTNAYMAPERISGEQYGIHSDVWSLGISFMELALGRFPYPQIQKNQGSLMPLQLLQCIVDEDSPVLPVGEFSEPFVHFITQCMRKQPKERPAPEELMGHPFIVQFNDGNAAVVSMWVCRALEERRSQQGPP

[7] = biological target: Beta-2 adrenergic receptor (Homo sapiens, UniProt P07550); test: Selectivity interaction (Panel of kinases, GPCRs, ion channels and transporters (enzymatic assay)) EUB0000223bCl ADRB2
[8] = biological target: Receptor-type tyrosine-protein kinase FLT3 (Homo sapiens) (UniProt P36888); test: Selectivity interaction (KinomeScan (DiscoverX)) EUB0000666a FLT3; conditions: at 10 µM
Sequence of Receptor-type tyrosine-protein kinase FLT3 (Homo sapiens) (P36888 whole entry): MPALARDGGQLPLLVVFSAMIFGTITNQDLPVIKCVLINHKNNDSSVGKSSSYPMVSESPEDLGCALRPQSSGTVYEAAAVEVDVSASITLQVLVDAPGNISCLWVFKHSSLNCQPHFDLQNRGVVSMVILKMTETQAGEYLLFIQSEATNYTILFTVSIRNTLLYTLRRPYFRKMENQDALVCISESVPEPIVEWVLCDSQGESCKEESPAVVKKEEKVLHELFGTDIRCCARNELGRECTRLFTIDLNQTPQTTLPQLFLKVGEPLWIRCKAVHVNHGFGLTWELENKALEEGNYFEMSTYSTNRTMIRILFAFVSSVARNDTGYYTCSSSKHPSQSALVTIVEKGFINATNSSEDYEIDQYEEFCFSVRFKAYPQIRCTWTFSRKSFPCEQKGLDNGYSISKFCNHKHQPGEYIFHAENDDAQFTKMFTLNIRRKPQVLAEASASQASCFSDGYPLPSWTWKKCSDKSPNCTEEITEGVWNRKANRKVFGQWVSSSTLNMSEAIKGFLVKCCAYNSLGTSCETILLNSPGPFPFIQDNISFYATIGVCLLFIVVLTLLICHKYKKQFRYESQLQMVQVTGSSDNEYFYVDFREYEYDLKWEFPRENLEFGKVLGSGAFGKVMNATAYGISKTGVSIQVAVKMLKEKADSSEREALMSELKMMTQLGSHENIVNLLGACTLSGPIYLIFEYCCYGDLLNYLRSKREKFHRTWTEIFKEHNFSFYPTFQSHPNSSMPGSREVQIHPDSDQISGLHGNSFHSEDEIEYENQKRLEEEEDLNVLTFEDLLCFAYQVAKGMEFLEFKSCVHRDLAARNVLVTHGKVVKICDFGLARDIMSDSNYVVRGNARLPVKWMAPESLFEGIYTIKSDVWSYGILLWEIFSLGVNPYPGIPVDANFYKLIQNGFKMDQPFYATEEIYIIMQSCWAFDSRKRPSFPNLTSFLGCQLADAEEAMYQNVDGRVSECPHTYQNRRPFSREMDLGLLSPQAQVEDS

Sequence of Beta-2 adrenergic receptor (P07550 whole entry, looked up): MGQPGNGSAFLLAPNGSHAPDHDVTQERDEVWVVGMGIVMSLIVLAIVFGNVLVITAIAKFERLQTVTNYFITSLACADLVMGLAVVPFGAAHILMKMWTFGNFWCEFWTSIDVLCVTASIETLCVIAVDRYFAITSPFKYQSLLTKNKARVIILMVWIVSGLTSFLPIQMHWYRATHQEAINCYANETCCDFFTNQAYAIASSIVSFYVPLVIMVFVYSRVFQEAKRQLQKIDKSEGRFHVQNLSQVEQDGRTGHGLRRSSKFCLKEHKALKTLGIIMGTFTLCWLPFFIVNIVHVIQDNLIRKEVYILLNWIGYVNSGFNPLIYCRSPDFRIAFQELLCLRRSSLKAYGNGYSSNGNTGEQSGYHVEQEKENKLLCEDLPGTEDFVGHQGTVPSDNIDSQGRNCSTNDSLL
Sequence of Serine/threonine-protein kinase 38 (Homo sapiens) (Q15208 2-465 limits assumed): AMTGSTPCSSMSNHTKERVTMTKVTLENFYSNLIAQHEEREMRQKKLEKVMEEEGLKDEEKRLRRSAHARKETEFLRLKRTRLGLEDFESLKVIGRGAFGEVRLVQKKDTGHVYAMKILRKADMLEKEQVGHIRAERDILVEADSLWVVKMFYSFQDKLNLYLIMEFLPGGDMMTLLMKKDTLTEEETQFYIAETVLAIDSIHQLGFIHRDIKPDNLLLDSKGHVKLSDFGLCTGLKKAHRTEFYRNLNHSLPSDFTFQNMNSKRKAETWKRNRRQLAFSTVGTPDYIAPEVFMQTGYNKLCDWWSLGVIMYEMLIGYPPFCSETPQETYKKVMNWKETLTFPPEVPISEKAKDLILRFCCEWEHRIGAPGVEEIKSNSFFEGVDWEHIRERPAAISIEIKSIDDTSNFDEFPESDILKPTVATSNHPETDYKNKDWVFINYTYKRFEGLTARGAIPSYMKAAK
Sequence of G protein-coupled receptor kinase 5 (P34947 whole entry, looked up): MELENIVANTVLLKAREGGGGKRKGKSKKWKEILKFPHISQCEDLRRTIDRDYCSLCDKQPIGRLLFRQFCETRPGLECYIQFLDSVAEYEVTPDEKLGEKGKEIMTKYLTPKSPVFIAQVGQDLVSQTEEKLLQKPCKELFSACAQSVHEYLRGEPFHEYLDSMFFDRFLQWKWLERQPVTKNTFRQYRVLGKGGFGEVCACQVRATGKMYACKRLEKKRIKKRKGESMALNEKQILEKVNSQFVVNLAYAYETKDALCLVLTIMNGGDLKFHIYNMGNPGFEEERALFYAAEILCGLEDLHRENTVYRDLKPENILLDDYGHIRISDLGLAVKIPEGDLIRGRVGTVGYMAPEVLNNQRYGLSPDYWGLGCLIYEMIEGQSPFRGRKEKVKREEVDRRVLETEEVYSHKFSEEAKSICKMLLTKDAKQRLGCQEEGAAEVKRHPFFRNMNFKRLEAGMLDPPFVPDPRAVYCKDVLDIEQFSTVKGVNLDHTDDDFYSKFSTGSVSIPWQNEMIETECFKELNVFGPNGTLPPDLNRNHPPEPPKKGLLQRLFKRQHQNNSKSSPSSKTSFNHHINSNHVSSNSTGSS
Sequence of LIM domain kinase 2 (Homo sapiens) (P53671 whole entry, looked up, the tested form may be a part): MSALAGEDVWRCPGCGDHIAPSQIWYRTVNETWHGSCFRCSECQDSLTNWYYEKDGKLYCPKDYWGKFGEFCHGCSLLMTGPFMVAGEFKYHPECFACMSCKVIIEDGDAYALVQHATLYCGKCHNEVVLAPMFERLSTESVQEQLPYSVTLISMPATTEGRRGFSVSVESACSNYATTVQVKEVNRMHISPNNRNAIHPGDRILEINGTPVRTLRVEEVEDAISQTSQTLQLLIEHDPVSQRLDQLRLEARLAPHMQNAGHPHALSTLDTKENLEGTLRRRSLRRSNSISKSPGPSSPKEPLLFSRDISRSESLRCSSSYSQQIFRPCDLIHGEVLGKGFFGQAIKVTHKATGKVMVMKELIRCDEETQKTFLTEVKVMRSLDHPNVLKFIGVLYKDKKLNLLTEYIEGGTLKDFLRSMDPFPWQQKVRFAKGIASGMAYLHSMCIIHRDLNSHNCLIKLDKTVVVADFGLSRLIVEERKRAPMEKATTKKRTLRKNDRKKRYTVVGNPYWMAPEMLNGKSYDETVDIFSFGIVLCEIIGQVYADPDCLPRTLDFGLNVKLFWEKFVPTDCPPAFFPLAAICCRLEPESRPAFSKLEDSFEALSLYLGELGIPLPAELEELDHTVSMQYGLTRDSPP

SMILES: N#Cc1cccc(-c2c[nH]c3ncnc(N4CCOCC4)c23)c1
% of inhibition [1]: 2%

SMILES: COCC(=O)NC/C=C/c1ccc2ncnc(Nc3ccc(Oc4ccc(C)nc4)c(C)c3)c2c1 [CP-724714]
% of control [2]: 100%

SMILES: Cc1cc([C@@H](C)Nc2ccccc2C(=O)O)c2nc(N3CCOCC3)cc(=O)n2c1 [AZD-6482]
% of control [3]: 92%

% of inhibition [4]: 0.578%
% of inhibition [5]: -31.6%
SMILES: CC[C@@H]1[C@H](F)C(=O)N[C@@H]1COc1nccc2cc(C(N)=O)c(OC)cc12 [ZIMLOVISERTIB]

% of control ([6]; at 1 µM): 87%
% of control ([6]; at 5 µM): 60%
SMILES: C=CC(=O)Nc1cccc(C(=O)Nc2ccc(Nc3cc(-c4[nH]c(SC)nc4C)ccn3)cc2)c1

SMILES: COc1cc(C(=O)N2CC[C@@H](O)[C@@H](N)C2)cc2nc(-c3cc4ccccc4n3CC3CC3)n(C)c12
pXC50 [7]: < 4.5 M

SMILES: O=C(NOC[C@H](O)CO)c1ccc(F)c(F)c1Nc1ccc(I)cc1F
% of control [8]: 80%
